Results as given in paper PMC6022709 (BMC Research Notes, 2018).
Converted amounts (≈) assume the structure as drawn. Numbered stars: 1 amine (or outer) side, 2 acyl side, 3 side chain; on linkers, the order of the positions; unused ones are H or OH. Square brackets hold non-standard residues; d marks the D form. Peptide text beside a SMILES is read from it. ξ: configuration not given here. X1 = CC[C@H](C)[C@@H](C(=O)[*:2])N(O)[*:1]; ξPiz(1,6-dehydro) = O=C(O)C1CCC=NN1; ξN(OH)Ile(3ξ) = CCC(C)C(NO)C(=O)O; dNMeF = CN[C@H](Cc1ccccc1)C(=O)O; NMeF = CN[CH](Cc1ccccc1)C(=O)O; X2 = O=C(C1CCCNN1[*:1])[*:2]; Pip = O=C(O)[C@@H]1CCCCN1; dPip = O=C(O)[C@H]1CCCCN1

Experiments:
[1] = tested on: M. tuberculosis H37Rv-LP (ATCC 25618) expressing a red fluorescent protein; settings: for MIC90: H37Rv
M. tuberculosis WT = format: cell-based, Mycobacterium tuberculosis
[2] = tested on: M. tuberculosis H37Rv-LP (ATCC 25618) expressing a red fluorescent protein; experiment: microbe, parasite or virus in culture; settings: Mycobacterium tuberculosis

SMILES	MIC90 [1] [µM]	also measured
CC(C)CC1C(=O)N2NCCCC2C(=O)N2NCCCC2C(=O)N(C)C(Cc2ccccc2)C(=O)N2CCCC2C(=O)NC(Cc2ccccc2)C(=O)N1O (stereo not drawn) [Compound 1, cyclo[N-(Me)Phe-Pro-Phe-N-(OH)Leu-Piz-Piz]]	2.3 ± 0.5 (≈ 1.75 µg/mL)	MIC99 (M. tuberculosis WT): 1.6 µM (≈ 1.21 µg/mL)
CO[C@H]1/C=C/O[C@@]2(C)Oc3c(C)c(O)c4c(O)c(c(/C=N/N5CCN(C)CC5)c(O)c4c3C2=O)NC(=O)/C(C)=C\C=C\[C@H](C)[C@H](O)[C@@H](C)[C@@H](O)[C@@H](C)[C@H](OC(C)=O)[C@@H]1C [Rifampicin]	–	MIC [2]: 0.0077 µM (≈ 0.00634 µg/mL)
CC(C)CC1C(=O)N2NCCCC2C(=O)N2NCCCC2C(=O)N(C)C(Cc2ccccc2)C(=O)N2CCCC2C(=O)NC(C(C)C)C(=O)N1O (stereo not drawn) [Compound 3]	8.9 ± 1.8 (≈ 6.33 µg/mL)	MIC99 (M. tuberculosis WT): 0.8 µM (≈ 0.569 µg/mL)
CC[C@H](C)[C@H]1C(=O)N2NCCC[C@@H]2C(=O)N2NCCC[C@H]2C(=O)N(C)[C@H](Cc2ccccc2)C(=O)N2CCC[C@H]2C(=O)N[C@H](Cc2ccccc2)C(=O)N1CC(C)=O [Compound 5]	8.2 ± 1.2 (≈ 6.55 µg/mL)	–
CCC(C)C1C(=O)N2CCCC2C(=O)NC(CC(C)C)C(=O)N(O)C(CC(C)C)C(=O)N2NCCCC2C(=O)N2NCCCC2C(=O)N1C (stereo not drawn) [Compound 4]	7.3 ± 1.9 (≈ 5.04 µg/mL)	–
CCCC1C(=O)N2CCCC2C(=O)NC(CC(C)C)C(=O)N(O)C(CC(C)C)C(=O)N2NCCCC2C(=O)N2NCCCC2C(=O)N1C (stereo not drawn) [Compound 16]	> 20	–
CC[C@H](C)[C@H]1C(=O)N2CCCC[C@@H]2C(=O)N2CCCC[C@H]2C(=O)N(C)[C@H](Cc2ccccc2)C(=O)N2CCC[C@H]2C(=O)N[C@H](Cc2ccccc2)C(=O)N1O [Compound 15] (cyclo([dNMeF]P[dF][X1][dPip][Pip]))	> 20	anti-tubercular activity (in words) [1]: loss of anti-tubercular activity
CCC(C)C1NC(=O)C(Cc2ccccc2)NC(=O)C2CCCN2C(=O)C(Cc2ccccc2)N(C)C(=O)C2CCC=NN2C(=O)C2CCC=NN2C1=O (stereo not drawn) [Compound 7] (cyclo([ξPiz(1,6-dehydro)][ξPiz(1,6-dehydro)][NMeF]PFI); configuration not given here)	> 20	–
CCC(C)C1C(=O)N2NCCCC2C(=O)N2NCCCC2C(=O)N(C)C(Cc2ccccc2)C(=O)N2CCCC2C(=O)NC(Cc2ccccc2)C(=O)N1O (stereo not drawn) [Compound 2] (cyclo([ξN(OH)Ile(3ξ)][X2][X2][NMeF]PF); configuration not given here)	2.8 ± 0.8 (≈ 2.12 µg/mL)	–
